The record followed here is patent publication US9034866B2 (Genentech, Inc., priority 2012, dated 2015).

Broadly, the Ki is a measure of affinity in units of concentration, obtained from inhibition or displacement.

Where “and” joins values, the source holds several entries; their conditions need not be identical. Equal entries are not always repeated. A value given as a limit tells only on which side of the number the result lay.

Chain of nuclear factor-kappa B (NF-kB)-inducing kinase (NIK) (Q99558 whole entry): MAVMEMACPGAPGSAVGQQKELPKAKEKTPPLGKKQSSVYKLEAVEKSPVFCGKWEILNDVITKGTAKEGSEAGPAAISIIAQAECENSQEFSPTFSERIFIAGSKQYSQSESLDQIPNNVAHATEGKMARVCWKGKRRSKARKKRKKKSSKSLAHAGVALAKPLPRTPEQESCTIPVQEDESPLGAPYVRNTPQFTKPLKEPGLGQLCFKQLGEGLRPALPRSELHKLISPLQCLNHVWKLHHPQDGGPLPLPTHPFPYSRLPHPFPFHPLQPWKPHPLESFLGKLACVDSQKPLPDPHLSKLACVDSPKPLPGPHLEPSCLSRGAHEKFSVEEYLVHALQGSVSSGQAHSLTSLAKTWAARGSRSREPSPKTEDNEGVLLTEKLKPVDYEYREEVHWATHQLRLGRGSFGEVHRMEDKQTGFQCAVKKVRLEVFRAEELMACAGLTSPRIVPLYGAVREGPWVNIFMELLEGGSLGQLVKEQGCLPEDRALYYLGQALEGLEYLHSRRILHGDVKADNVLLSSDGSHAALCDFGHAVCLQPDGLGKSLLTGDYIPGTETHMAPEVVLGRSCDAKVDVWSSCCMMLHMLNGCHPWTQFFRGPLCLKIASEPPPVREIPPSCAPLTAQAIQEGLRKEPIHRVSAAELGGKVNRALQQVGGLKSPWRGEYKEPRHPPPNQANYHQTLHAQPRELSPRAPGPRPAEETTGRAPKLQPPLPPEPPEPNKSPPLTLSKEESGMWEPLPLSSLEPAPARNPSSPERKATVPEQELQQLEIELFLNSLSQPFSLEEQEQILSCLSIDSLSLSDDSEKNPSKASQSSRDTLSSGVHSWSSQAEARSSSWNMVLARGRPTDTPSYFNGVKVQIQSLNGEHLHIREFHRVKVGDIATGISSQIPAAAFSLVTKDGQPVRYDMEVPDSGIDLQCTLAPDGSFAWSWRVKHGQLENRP

One test deals with nuclear factor-kappa B (NF-kB)-inducing kinase (NIK) (Homo sapiens (Human), UniProt Q99558). In words: NIK Enzyme Inhibition Assay (Transcreener ADP fluorescence polarization). The test is classed as biochemical. Particulars: purified NIK 0.2-1 nM, 10 uM ATP, Morrison's quadratic equation; read-out: NIK ADP-FP (Ki uM). The procedure, abridged:
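Fluorescence-polarization ADP detection (tracer displacement, 633 nm excitation) read after EDTA/Brij quench. Reaction: 0.2-1 nM insect-cell-derived NIK, 10 uM ATP, HEPES pH 7.2 with MgCl2 and DTT, 1% DMSO, 1-3.5 h with compounds.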
Background: In fluorescence polarisation assays a small probe gives low polarisation when free and higher when bound to something large.
`NC(=O)c1cn2c(n1)-c1cc(C#CC3(O)CC(CO)C3)c(F)cc1OCC2` (stereo not drawn) [Example 76]: the Ki came to 2.3 µM.
Take `CN1CCCC(NC(=O)c2c(C(N)=O)nc3n2CCOc2cc(F)c(C#CC(C)(C)O)cc2-3)C1` (stereo not drawn) [Example 78]: the Ki was found to be 0.06 µM.
For the molecule `CC(C)(O)C#Cc1cc2c(cc1F)OCCn1c-2nc(C(N)=O)c1C(=O)NCC1COC1` [Example 91], the Ki was 0.004 µM.
The same measure, in the same setting: the value for `CC(O)(C#Cc1cc2c(cc1F)OCCn1cc(C(N)=O)nc1-2)C(=O)NC1CC1` (stereo not drawn) [Example 94] was 0.854 µM; that for `CC(O)(C#Cc1cc2c(cc1F)OCCn1cc(C(N)=O)nc1-2)C(=O)N1CC(C#N)C1` (stereo not drawn) [Example 95] was 0.304 µM.
On the same count and under the same terms, in the case of `CNC(=O)c1c(C(N)=O)nc2n1CCOc1cc(F)c(C#C[C@@](C)(O)c3noc(C)n3)cc1-2` [Example 97, 8-fluoro-9-[(R)-3-hydroxy-3-(5-methyl-[1,2,4]oxadiazol-3-yl)-but-1-ynyl]-4,5-dihydro-6-oxa-1,3a-diaza-ben-zo[e]azulene-2,3-dicarboxylic acid 2-amide 3-methylamide] it was 0.007 µM.
With `CC(O)(C#Cc1cc2c(cc1F)OCCn1cc(C(N)=O)nc1-2)c1ccc(F)cn1` (stereo not drawn) [Example 101, 8-fluoro-9-[3-(5-fluoro-pyridin-2-yl)-3-hydroxy-but-1-ynyl]-4,5-dihydro-6-oxa-1,3a-diaza-benzo[e]azulene-2-carboxy-lic acid amide], the Ki was determined as 3.5 µM.
The same measure, in the same setting: in the case of `CC(O)(C#Cc1cc2c(cc1F)OCCn1cc(C(N)=O)nc1-2)c1ccc(Cl)cn1` (stereo not drawn) [Example 102, 9-[3-(5-chloro-pyridin-2-yl)-3-hydroxy-but-1-ynyl]-8-fluoro-4,5-dihydro-6-oxa-1,3a-diaza-benzo[e]azulene-2-carboxy-lic acid amide] it was above 5 µM; in that of `CC(C)(O)C#Cc1ccc2c(c1)-c1nc(C(N)=O)c(-c3cc[nH]n3)n1CCO2` [Example 110], 0.023 µM.
Consider `CC(O)(C#Cc1cc2c(cc1F)OCCc1sc(C(N)=O)nc1-2)CF` (stereo not drawn) [Example 117, 8-fluoro-9-(4-fluoro-3-hydroxy-3-meth-yl-but-1-ynyl)-4,5-dihydro-6-oxa-3-thia-1-aza-benzo[e]azulene-2-carboxylic acid amide], for which the Ki was found to be 0.005 µM.
Turning to `CC(O)C(C)(O)C#Cc1cc2c(cc1F)OCCn1cc(C(N)=O)nc1-2` (stereo not drawn) [Example 142], the Ki stood at 0.142 µM.
On the same count and under the same terms, in the case of `CN1CCCC(O)(C#Cc2ccc3c(c2)-c2nc(C(N)=O)cn2CCO3)C1=O` (stereo not drawn) [Example 158] it was 0.0059 µM; in that of `Cc1nn(C)cc1C(O)c1c(C(N)=O)nc2n1CCOc1cc(F)c(C#CC(C)(C)O)cc1-2` (stereo not drawn) [Example 169], 0.023 µM.
Same read-out and setting: the value for `CC(C)(C#Cc1ccc2c(c1)-c1nc(C(N)=O)cn1CCO2)CO` [Example 171] was above 5 µM.
Same read-out and setting: the value for `CC(C)(O)C#Cc1ccc2c(c1)-c1nc(C(N)=O)cn1C1CC2C1` [Example 179, 10-(3-hydroxy-3-methyl-but-1-ynyl)-5,6,7,12-tetrahydro-5,7-methanobenzo[c]imi-dazo[1,2-a]azepine-2-carboxamide] was 0.022 µM; that for `CC(O)(C#Cc1ccc2c(c1)-c1nc(C(N)=O)cn1C1CC2C1)CO` (stereo not drawn) [Example 181, 10-(3,4-dihydroxy-3-methyl-but-1-ynyl)-5,6,7,12-tetrahydro-5,7-methanoben-zo[c]imidazo[1,2-a]azepine-2-carboxamide] was 0.036 µM.
In the case of `CC(O)(C#Cc1cc2c(cc1F)OCCc1sc(C(N)=O)nc1-2)c1ncn[nH]1` (stereo not drawn) [Example 182, 8-fluoro-9-[3-hydroxy-3-(1H-1,2,4-tria-zol-5-yl)but-1-ynyl]-4,5-dihydro-[I]ben-zoxepino[5,4-d]thiazole-2-carboxamide], the Ki came out at 0.0021 µM.
The same measure, in the same setting: the value for `COCC(C)(O)C#Cc1cc2c(cc1F)OCCn1c-2nc(C(N)=O)c1-c1nc(C2CC2)n[nH]1` (stereo not drawn) [Example 213] was 0.009 µM.
On the same count and under the same terms, in the case of `CC(C)N(C)Cc1c(C(N)=O)nc2n1C1CC(C1)c1cc(F)c(C#CC(C)(C)O)cc1-2` [Example 223] it was 0.16 µM; in that of `CC(O)(C#Cc1cc2c(cc1F)OCCn1cc(C(N)=O)nc1-2)c1ncccc1F` (stereo not drawn) [Example 252], 0.025 µM; in that of `CC(C)(O)C#Cc1cc2c(cc1F)C1CC(C1)n1c-2nc(C(N)=O)c1C(O)c1ccn[nH]1` (stereo not drawn) [Example 309, 9-fluoro-10-(3-hydroxy-3-methyl-but-1-ynyl)-3-[hydroxy(1H-pyrazol-5-yl)meth-yl]-5,6,7,12-tetrahydro-5,7-methanoben-zo[c]imidazo[1,2-a]azepine-2-carboxamide], 0.022 µM.
Still for that read-out and setting: the value for `CN1CC[C@](O)(C#Cc2cc3c(cc2F)C2CC(C2)n2c-3nc(C(N)=O)c2C(C)(C)O)C1=O` [Example 325, 9-fluoro-3-(1-hydroxy-1-methyl-ethyl)-10-[2-[(3S)-3-hydroxy-1-methyl-2-oxo-pyrrolidin-3-yl]ethynyl]-5,6,7,12-tetra-hydro-5,7-methanobenzo[c]imidazo-[1,2-a]azepine-2-carboxamide] was above 1.2 µM; that for `CC(C)(O)C#Cc1cc2c(cc1F)C1CC(C1)n1c-2nc(C(N)=O)c1CNC(=O)C(C)(C)C` [Example 365, 3-[(2,2-dimethylpropanoylamino)meth-yl]-9-fluoro-10-(3-hydroxy-3-methyl-but-1-ynyl)-5,6,7,12-tetrahydro-5,7-meth-anobenzo[c]imidazo[1,2-a]azepine-2-carb-oxamide] was 0.017 µM.
As for `CC12CCC(O)(C#Cc3ccc4c(c3)-c3nc(C(N)=O)cn3CCO4)C1O2` (stereo not drawn) [Example 428], the Ki is above 1.2 µM.
On to `Cc1nnc([C@](C)(O)C#Cc2ccc3c(c2)-n2nc(C(N)=O)cc2C(C)CO3)o1` (stereo partly drawn) [Example 497], for which the Ki stood at 0.039 µM.
On the same count and under the same terms, the value for `Cc1cc([C@](C)(O)C#Cc2ccc3c(c2)-c2nc(C(N)=O)c(C(=O)NCC4COC4)n2CCO3)no1` [Example 580, (R)-10-(3-hydroxy-3-(5-methylisoxazol-3-yl)but-1-yn-1-yl)-N3-(oxetan-3-ylmeth-yl)-5,6-dihydrobenzo[f]imidazo[1,2-d][1,4]oxazepine-2,3-dicarboxamide] was 0.0026 µM.
Still for that read-out and setting: in the case of `Cc1cc([C@](C)(O)C#Cc2ccc3c(c2)-c2nc(C(N)=O)c(C(=O)NCc4cccnc4)n2CCO3)no1` [Example 581, (R)-10-(3-hydroxy-3-(5-methylisoxazol-3-yl)but-1-yn-1-yl)-N3-(pyridin-3-ylmeth-yl)-5,6-dihydrobenzo[f]imidazo[1,2-d][1,4]oxazepine-2,3-dicarboxamide] it was 0.001 µM; in that of `Cc1cc([C@](C)(O)C#Cc2ccc3c(c2)-c2nc(C(N)=O)cn2CC(CN2CCOCC2)O3)no1` (stereo partly drawn) [Example 597, 10-((R)-3-hydroxy-3-(5-methylisoxazol-3-yl)but-1-yn-1-yl)-6-(morpholinometh-yl)-5,6-dihydrobenzo[f]imidazo[1,2-d][1,4]oxazepine-2-carboxamide], 0.28 µM.
As to `CN1CC[C@@](O)(C#Cc2ccc3c(c2)-c2nc(C(N)=O)sc2C2CC3C2)C1=O` [Example 609, (R)-9-((3-hydroxy-1-methyl-2-oxopyrro-lidin-3-yl)ethynyl)-5,6-dihydro-4H-4,6-methanobenzo[6,7]cyclohepta[1,2-d]thiazole-2-carboxamide], the Ki worked out at 0.00094 µM.
Same read-out and setting: in the case of `CN1CC[C@@](O)(C#Cc2cc3c(cc2F)OCC(F)(F)c2sc(C(N)=O)nc2-3)C1=O` [Example 641, 4,4,8-trifluoro-9-[2-[(3R)-3-hydroxy-1-methyl-2-oxo-pyrrolidin-3-yl]ethynyl]-5H-[1]benzoxepino[5,4-d]thiazole-2-carboxamide] it was 0.0002 µM; in that of `CN1CC[C@@](O)(C#Cc2ccc3c(c2)-c2nc(C(N)=O)c(C(F)F)n2C2CC3C2)C1=O` [Example 664, 3-(difluoromethyl)-10-[2-[(3R)-3-hy-droxy-1-methyl-2-oxo-pyrrolidin-3-yl]ethy-nyl]-5,6,7,12-tetrahydro-5,7-methano-benzo[c]imidazo[1,2-a]azepine-2-carboxamide], 0.00078 µM.
Still for that read-out and setting: in the case of `Cc1nc([C@](C)(O)C#Cc2ccc3c(c2)-n2nc(C(N)=O)cc2CCO3)no1` [Example 673, (R)-9-(3-hydroxy-3-(5-methyl-1,2,4-oxadiazol-3-yl)but-1-yn-1-yl)-4,5-dihydro-benzo[b]pyrazolo[1,5-d][1,4]oxazepine-2-carboxamide] it was 0.045 µM; in that of `NC(=O)c1cc2n(n1)-c1cc(C#CC3(O)CCCC3O)ccc1OCC2` (stereo not drawn) [Example 695], 1.8 µM and 1.1 µM.
In the case of `CC(O)(C#Cc1ccc2c(c1)-n1nc(C(N)=O)cc1CCO2)C1CCCO1` (stereo not drawn) [Example 696], the inhibition constant Ki is 1 µM.
For the molecule `CC(C)(O)C#Cc1ccc2c(c1)-c1nc(C(N)=O)c(CN3CCC(=O)C3)n1CCO2` [Example 711], the Ki is 1.8 µM and 1.1 µM.
For the molecule `Cc1cc([C@](C)(O)C#Cc2ccc3c(c2)-c2nc(C(N)=O)c(C(=O)NC4CCOCC4)n2CCO3)no1` [Example 712, (R)-10-(3-hydroxy-3-(5-methylisoxazol-3-yl)but-1-yn-1-yl)-N3-(tetrahydro-2H-pyran-4-yl)-5,6-dihydrobenzo[f]imidazo[1,2-d][1,4]oxazepine-2,3-dicarboxamide], the Ki amounted to 1 µM.
The same measure, in the same setting: the value for `Cc1cc([C@](C)(O)C#Cc2ccc3c(c2)-c2nc(C(N)=O)c(C(=O)NCc4cccc(F)c4)n2CCO3)no1` [Example 713, (R)-N3-(3-fluorobenzyl)-10-(3-hydroxy-3-(5-methylisoxazol-3-yl)but-1-yn-1-yl)-5,6-dihydrobenzo[f]imidazo[1,2-d][1,4]oxazepine-2,3-dicarboxamide] was above 1.2 µM.

Still in this test, the particulars now being: read-out: NIK ADP-FP (Ki uM).
As to `CNC(=O)c1c(C(N)=O)nn2c1CCOc1ccc(C#C[C@@](C)(O)c3cc(C)on3)cc1-2` [Example 548], the Ki is 0.0014 µM.
The same measure, in the same setting: the value for `Cc1cc([C@](C)(O)C#Cc2ccc3c(c2)-n2nc(C(N)=O)cc2C(F)(F)CO3)no1` [Example 674, (R)-4,4-difluoro-9-(3-hydroxy-3-(5-methylisoxazol-3-yl)but-1-yn-1-yl)-4,5-dihydrobenzo[b]pyrazolo[1,5-d][1,4]oxazepine-2-carboxamide] was 0.0011 µM.
